7 compounds from patent US5260425A, “Anthracycline derivatives having cytostatic activity” (priority 1988, dated 1993) can be followed below.

Data set [1] concerns L1210 mouse leukemia cells. The data set can be described thus: Formation of colonies of L1210 leukemia cells in soft agar (cytotoxicity in vitro). In kind it is cell-based. The following applies: Mus musculus. On the procedure:
The cytostatic activity of the compounds according to the invention has been tested using L1210 mouse leukemia cells. Employed for this purpose was the formation of colonies of L1210 leukemia cells in agar plates. This method is used to detect the effect of the test substances on the growth behavior of the cells over 1 hour or over several generations. In this connection, with a cell cycle time of 10-12 hours about 14 consecutive generations are observed in the 7 days the test lasts. In this test, the substances having cytostatic activity according to the invention bring about a reduction in the number of colonies to be observed by comparison with an untreated control sample.
Procedure for determining the formation of colonies of L1210 leukemia cells in soft agar
500 leukemia cells per plate were incubated with various concentrations of the test substance at 37° C. for 1 hour. The cells were then washed twice with McCoy5A medium and finally, after addition of 0.3% agar, poured into Petri dishes. Controls were incubated only with fresh medium. In place of the incubation for one hour, in some cases various concentrations and test substances were mixed with the upper agar layer in order in this way to achieve continuous exposure of the cells throughout the incubation time. After the agar had solidified, the plates were incubated in an incubator at 37° C. for 7 days (5% by volume CO2, 95% relative humidity). The number of colonies which had been produced with a diameter of more than 60 μm was then counted. The results have been reported as the number of colonies in treated agar plates as a percentage of the untreated control. The IC50 was determined as a measure of the activity of the substance from the dose-effect plot obtained in this way. The results for the compounds described herein, by comparison with adriamycin, are compiled in Table 1.

The test system of data set [2] is sensitive and resistant L1210 leukemia cells. The data set can be described thus: Proliferation test (MTT reduction), cross-resistance to doxorubicin/adriamycin in vitro. In kind it is cell-based, mouse. The conditions noted are these: for Degree of resistance of the cell / Cross-resistance to adriamycin (degree of cross-resistance): MTT, 3d; for Degree of resistance of the cell: IC50 resistant subline related to IC50 sensitive subline; for Cross-resistance to adriamycin (degree of cross-resistance): adriamycin = 100.0; for Cross-resistance to doxorubicin (in words): L1210, MTT, in vitro. How it is done:
L1210, A 549 or HT 29 in the exponential phase of growth are incubated in a cell density of 5×10^3 cells/ml in RPMI 1640 in a 96-well microtiter plate with various concentrations of the test substance at 37° C., 5% CO2 and 95% relative humidity for 72 h. Control experiments receive merely growth medium in place of the test substance. Quadruplicate determinations are set up for each test substance and for the control. After incubation for 65 h, 50 μl of an MTT solution (2.5 mg/ml; MTT=3-(4,5-dimethylthiazol-2-yl)-2,5-diphenyltetrazoliumbromide) in phosphate-buffered saline) are added. MTT is reduced to a dark red insoluble formazan dyestuff in the presence of live cells. This reaction is complete after 7 h (L1210 cells) or after 24 h (A 549, HT 29 cells), and the supernatant medium is carefully removed by aspiration. The insoluble dyestuff is dissolved by addition of 100 μl of DMSO (dimethyl sulfoxide) and the extinction of the resulting solution at a wavelength of 492 nm is then measured for each well in a multiscan 340 CC photometer from Flow.
The ratio of the extinctions for treated and untreated cells provides a dose-effect plot from which the concentration which just kills 50% of the cells (IC50) can be read off. The coefficient of variation for repeat investigations is less than 15%.
The cross-resistance between the particular test compound and doxorubicin as standard compound is determined with the aid of the MTT test (see above for method) on sensitive and resistant L1210 leukemia cells.
The resistant cell line was established by incubation of a sensitive subline with the reference compound in concentrations which increased stepwise.
The IC50 of the test compound on the resistant subline related to the IC50 of the sensitive subline provides both the degree of resistance for the test Compound (DR(T)) and that for the reference compound (DR(R)) in accordance with the formula [formula]
In addition, the degree of cross-resistance (DCR) for the test compound is calculated in accordance with the formula [formula]
In the case where the loss of effect of the test compound on the resistant line in relation to the sensitive line is greater than that of the reference compound it is possible for the degree of cross-resistance to be above 100%.

Data set [3] can be described thus: Determination of the indicative toxicity. The following applies: mouse, in vivo, ip; 3xip,q3d (three intraperitoneal administrations, 3 days interval); survival day 14. On the procedure:
To determine the indicative toxicity, NMRI mice receive an intraperitoneal injection of various doses of the test substance dissolved in 0.5 ml of 5% strength glucose solution on day 0. Control groups receive merely 0.5 ml of 5% strength glucose solution. 5 mice are used for each concentration of the test substance. The number of mice surviving on day 14 is determined, and from this the LD5, LD50 and LD95 are determined by the Litchfield-Wilcoxon method. The toxicity (LD50 (mg/kg)) of the compounds described here is summarized in Table 3 by comparison with adriamycin.

The subject of another data set is L1210 leukemia. Nature of the data set: In vivo activity on L1210 leukemia of the mouse (antitumor activity T/C). The conditions noted are these: for response vs control in vivo at 2.8 mg/kg: dose 2.80 mg/kg. On the procedure: Ascites fluid is removed from DBA2 mice (female, 18-20 g) under sterile conditions 7 days after inoculation of tumor cells. The ascites is washed three times with PBS (phosphate-buffered saline), counted and adjusted to a cell count of 10^6 in 0.2 ml of PBS.
10^6 cells, suspended in 0.2 ml of PBS, are then injected intraperitoneally into DBF1 mice (female, 18-20 g). 6 animals per group are used for each substance concentration and as controls.
a) The animals are weighed on days 1 and 5 after injection of the test substance. A weight loss of more than 20% on day 5 is regarded as an indicator of a toxic effect of the substance.
b) At the end of the experiment (death of all animals or surviving animals on day 60) the mean survival time of the animals in the particular groups is determined as long as at least 65% of the animals were still alive on day 5 of the experiment. The mean survival time is determined only for animals which die during the course of the experiment. Long-term survivors (LTS) are not included in this calculation and are reported separately.
The antitumor activity (T/C) for the particular substance concentration is determined from the mean survival time (MSTT) in the treated groups and in the control groups (MSTC) as a percentage of the untreated controls in accordance with the following formula: [formula]
The T/C values and the treatment regimen employed in each case are compiled in Table 3, together with the indicative toxicity. T/C values greater than 125% are regarded as an indicator of a significant antitumor activity of the test substance.

A short description of data set [4]: Determination of the indicative toxicity. The following applies: mouse, in vivo; 3xiv,q3d (three intravenous administrations, 3 days interval); survival day 14.
Setting [5] is: 168 h, continuous incubation, 7 days, L1210 colonies in agar, read-out: IC50, continuous incubation.
Setting [6] is: 1 h incubation, then 7 days, L1210 colonies in agar, read-out: IC50, 1 h incubation.
Setting [7] is: L1210, 168 h, read-out: IC50, continuous incubation, continuous incubation, 7 days, L1210 colonies in agar.
The mark [8] stands for this setting: L1210, read-out: IC50, 1 h incubation, 1 h incubation, then 7 days, L1210 colonies in agar.
Setting [9] is: Mus musculus, L1210, iv, read-out: T/C, L1210-leukemia in vivo.

≈ marks a conversion by molar mass, not a printed value. Like-named read-outs stand apart in the source and are kept apart here.

For the compound `COc1cccc2c1C(=O)c1c(O)c3c(c(O)c1C2=O)C[C@@](O)(C(=O)CO)C[C@@H]3O[C@H]1C[C@H](N)[C@H](O)[C@H](C)O1` [Adriamycin, reference compound], the IC50 in data set [1] (setting [5]) was 0.02 mg/L (≈ 0.0368 µM); in data set [1] (setting [6]), 0.04 mg/L (≈ 0.0736 µM). Besides, in data set [2], the “Degree of resistance of the cell” value is 60-80. In data set [2], the “Cross-resistance to adriamycin (degree of cross-resistance)” value (“Cross-resistance to adriamycin” below) was found to be 100.0%. In data set [3], this compound showed an LD50 at 336 h of 2.7 mg/kg. Moreover, the “Animals recovered (longterm survivors)” value in the data set on L1210 leukemia (3xip,q3d, L1210-leukemia in vivo) was “Two of 6”.

As for `C=CCN(C)[C@H]1C[C@H](O[C@H]2C[C@](O)(CC)[C@H](O)c3c(O)c4c(c(O)c32)C(=O)c2c(O)cccc2C4=O)O[C@@H](C)[C@H]1O` [Compound 1, 7-O-(3'-N-Allyl-3'-N-methyl-alpha-L-daunosaminyl)-β-rhodomycinone], the concentration for half-maximal inhibition (IC50) in data set [1] (setting [7]) came to 0.01 mg/L (≈ 0.0176 µM). Also, the IC50 in data set [1] (setting [8]) was found to be 0.08 mg/L (≈ 0.14 µM). Besides, in data set [2], the “Cross-resistance to doxorubicin (in words)” value is “not cross-resistant to doxorubicin”, the “Degree of resistance of the cell” value came to 10.0 and the “Cross-resistance to adriamycin” value is 19.0%. Besides, the LD50 at 336 h in data set [3] fell in the range of 1 to 5 mg/kg. Further, the response vs control in vivo at 1.19 mg/kg in the data set on L1210 leukemia (Mus musculus, L1210, ip, read-out: T/C, L1210-leukemia in vivo) is 200%. Moreover, the response vs control in vivo at 1 mg/kg in the data set with L1210 leukemia (setting [9]) worked out at 146%.

With `C#CCN(C)[C@H]1C[C@H](O[C@H]2C[C@](O)(CC)[C@H](O)c3c(O)c4c(c(O)c32)C(=O)c2c(O)cccc2C4=O)O[C@@H](C)[C@H]1O` [Compound 2, 7-O-(3'-N-methyl-3'-N-proparayl-alpha-L-daunosaminyl)-β-rhodomycinone], the IC50 turned out to be 0.08 mg/L (≈ 0.141 µM) in data set [1] (setting [5]) and 0.3 mg/L (≈ 0.529 µM) in data set [1] (setting [6]). In the data set on L1210 leukemia (Mus musculus, L1210, iv, 3xiv,q3d, dose 1.20 mg/kg, % of the control), this compound yielded a response vs control in vivo at 1.2 mg/kg of 144%. In data set [4], this compound gave an LD50 at 336 h of 2 to 5 mg/kg.

As to `CC[C@@]1(O)C[C@H](O[C@H]2C[C@H](N(C)Cc3ccco3)[C@H](O)[C@H](C)O2)c2c(O)c3c(c(O)c2[C@H]1O)C(=O)c1cccc(O)c1C3=O` [Compound 6, 7-O-(3'-N-(2-Furfuryl)-3'-N-methyl-alpha-L-daunosaminyl)-β-rhodomycinone], the concentration for half-maximal inhibition (IC50) in data set [1] (setting [5]) was 0.03 mg/L (≈ 0.0492 µM). Besides, the concentration for half-maximal inhibition (IC50) in data set [1] (setting [6]) was determined as 0.038 mg/L (≈ 0.0623 µM). In data set [2], the “Cross-resistance to doxorubicin (in words)” value is recorded as “not cross-resistant to doxorubicin”, the “Degree of resistance of the cell” value is on record as 2.0 and the “Cross-resistance to adriamycin” value worked out at 2.0%. In addition, the LD50 at 336 h in data set [3] lay within 1 to 5 mg/kg. Besides, in the data set with L1210 leukemia (Mus musculus, L1210, ip, 3xip,q3d, % of the control), the response vs control in vivo at 2.8 mg/kg amounted to 141%. Besides, in the data set with L1210 leukemia (Mus musculus, L1210, iv, 3xiv,q3d, % of the control), the response vs control in vivo at 2.8 mg/kg is 129%.

On to `CCOC(=O)CN(C)[C@H]1C[C@H](O[C@H]2C[C@](O)(CC)[C@H](O)c3c(O)c4c(c(O)c32)C(=O)c2c(O)cccc2C4=O)O[C@@H](C)[C@H]1O` [Compound 10, 7-O-(3'-N-(Ethoxycarbonylmethyl)-3'-N-methyl-alpha-L-daunosaminyl)-β-rhodomycinone], for which the figures for the IC50 in data set [1] (setting [5]) and in data set [1] (setting [6]) were 0.1 mg/L (≈ 0.162 µM) and 0.06 mg/L (≈ 0.0975 µM), respectively. In data set [3], this compound returned a 50% lethal dose (LD50) at 336 h of 10 to 25 mg/kg. In addition, the response vs control in vivo at 12.7 mg/kg with L1210 leukemia (Mus musculus, L1210, iv, 3xiv,q3d, dose 12.7 mg/kg, % of the control) stood at 132%.

`CC[C@@]1(O)C[C@H](O[C@H]2C[C@H](N(C)Cc3ccsc3)[C@H](O)[C@H](C)O2)c2c(O)c3c(c(O)c2[C@H]1O)C(=O)c1cccc(O)c1C3=O` [Compound 12, 7-O-(3'-N-Methyl-3'-N-(3-thenyl)-alpha-L-daunosaminyl)-β-rhodomycinone]: the results for the IC50 in data set [1] (setting [7]) and in data set [1] (setting [8]) were 0.032 mg/L (≈ 0.0511 µM) and 0.17 mg/L (≈ 0.272 µM), respectively. In addition, the LD50 at 336 h in data set [4] was 2 to 5 mg/kg.

Consider `CC[C@@]1(O)C[C@H](O[C@H]2C[C@H](N(C)CC3CO3)[C@H](O)[C@H](C)O2)c2c(O)c3c(c(O)c2[C@H]1O)C(=O)c1c(O)ccc(O)c1C3=O` (stereo partly drawn) [Compound 14m, 7-O-(3'-N-Glycidyl-3'-N-methyl-alpha-L-daunosaminyl)-β-isorhodomycinone], for which the half-maximal inhibitory concentration (IC50) was determined as 0.005 mg/L (≈ 0.00831 µM) in data set [1] (setting [7]) and 0.0024 mg/L (≈ 0.00399 µM) in data set [1] (setting [8]). For the same compound, in the data set on L1210 leukemia (setting [9]), the response vs control in vivo at 0.13 mg/kg came to 104%. The compound also displayed an LD50 at 336 h in data set [4] of 0.3 to 0.75 mg/kg.
